For data set [1] the following is noted: human, in vivo; cited from earlier work.
The conditions of data set [2]: antihistamines now in use; causes dryness of mouth, blurred vision and tachycardia; cited from earlier work.
The target of data set [3] is T1, histamine response of longitudinal muscle isolated from the intact ileum of guinea-pigs (Cavia porcellus, UniProt P31389).
T1 construct: The longitudinal muscle was isolated from the intact ileum of guinea-pigs; from tissue; host or cells: longitudinal muscle of guinea-pig ileum (Hartley, male)
Put plainly: In vitro antihistaminic activity (histamine concentration-response curves, Schild plot). The settings on record: for Kb: guinea-pig ileum longitudinal muscle, one hour incubation with test compound, Schild plot, read-out: pA2 (converted); for antihistamine activity (in words): of the compounds of formula (I). The class given is cell-based, guinea-pig (Hartley, male). As for the experimental part:
In vitro antihistaminic activity: The longitudinal muscle was isolated from the intact ileum of guinea-pigs (Hartley, male 250-400 g) and placed in an organ bath under 300 mg tension. After one hour of equilibration, cumulative concentration-response curves (Van Rossum, J. M., Arch. Int. Pharmacodyn. Ther. 143, 299-330, 1963) to histamine were obtained. Following washing, the tissues were incubated for one hour with the test compound and then a second histamine concentration-response curve was run. Shifts to the right of the agonist concentration-response curve produced by the antagonists were used to construct Schild plots (Arunlakshana, O. and Schild, H. O., Br. J. Pharmacol: 14, 48-58, 1959). Regression of Log (dr-1) on Log [B], where dr is an equiactive response in the presence and absence of antagonist and [B] is the molar concentration of antagonist, allowed an estimate of pA2, i.e. the negative log of the concentration of antagonist which shifts the control histamine concentration-response curve 2X to the right.

The structures appear in SMILES notation.

T1 sequence (P31389 whole entry): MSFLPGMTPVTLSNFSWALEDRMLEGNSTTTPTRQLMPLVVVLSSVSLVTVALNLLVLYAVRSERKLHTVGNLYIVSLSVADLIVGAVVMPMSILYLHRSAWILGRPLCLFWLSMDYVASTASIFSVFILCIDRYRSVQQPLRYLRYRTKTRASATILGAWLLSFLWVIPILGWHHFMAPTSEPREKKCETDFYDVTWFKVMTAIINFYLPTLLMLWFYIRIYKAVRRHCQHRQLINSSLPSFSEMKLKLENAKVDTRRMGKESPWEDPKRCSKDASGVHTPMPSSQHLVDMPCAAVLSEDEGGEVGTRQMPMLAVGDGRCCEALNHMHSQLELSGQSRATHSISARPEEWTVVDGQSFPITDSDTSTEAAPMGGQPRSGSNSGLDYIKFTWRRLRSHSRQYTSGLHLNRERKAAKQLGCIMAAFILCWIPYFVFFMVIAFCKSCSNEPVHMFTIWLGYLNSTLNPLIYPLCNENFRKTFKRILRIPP

Take `COc1ccc(CN(CCN(C)C)c2ccccn2)cc1` [Pyrilamine, N,N-dimethyl-N'-(4-methoxyphenylmethyl)-N'-2-pyridyl-1,2-ethanediamine]: the sedation and drowsiness result in data set [1] is “produces sedation and drowsiness in varying degrees in most patients”. Further, the anticholinergic activity entry in data set [2] is reported as “varying degrees of anticholinergic activity”.

For `COc1ccc(CN(CCN(C)C)c2ccc(C(=O)O)cn2)cc1` [Compound B, 6-(N-(2-dimethylaminoethyl)-4-methoxybenzylamino) nicotinic acid], in data set [3], the Kb was 1260 nM and the “antihistamine activity (in words)” value is given as “particularly active”.

On to `CC(CN1c2ccccc2Sc2ccccc21)N(C)C` (centres unmarked) [promethazine], for which the anticholinergic activity entry in data set [2] is listed as “varying degrees of anticholinergic activity”.

For the compound `Cc1ccc(/C(=C\CN2CCCC2)c2ccccn2)cc1` [triprolidine], the anticholinergic activity entry in data set [2] is “varying degrees of anticholinergic activity”.

In the case of `COc1ccc(CN(CCN(C)C)c2cccc(/C=C/C(=O)O)n2)cc1` [Compound A, (E)-3-(6-(N-(2-dimethylaminoethyl)-4-methoxybenzylamino)-2-pyridyl)acrylicacid], in data set [3], the Kb is 251 nM and the “antihistamine activity (in words)” value was “particularly active”.

Source of the values: patent US4590199A, “Antihistaminic 2-(amino ethylamino) pyridines” (priority 1983, dated 1986).
